Earlier results, collected in patent publication US20030083378A1, “Eye drops” (priority 2000, published 2003).

Key:
leukotrienes = conditions: Japanese Unexamined Patent Publication No. Hei 2-1459
respiratory anaphylaxis = conditions: Japanese Unexamined Patent Publication No. Hei 2-1459

Solubility: slightly soluble
SMILES: CCCc1c(SCCCOc2ccc(C(C)=O)c(OCCCC(=O)O)c2CCC)ccc(C(C)=O)c1O [KCA-757, 4-[6-acetyl-3-[3-[(4-acetyl-3-hydroxy-2-propylphenyl)thio]propoxy]-2-propylphenoxy]butyric acid]
Leukotriene antagonist activity (leukotrienes): potent and selective leukotriene antagonist activity
Inhibitory function on respiratory anaphylaxis (respiratory anaphylaxis): inhibitory function on respiratory anaphylaxis
